This note sets out measurements from patent US10538521B2, “Pyrimidine derivative having antimalarial activity” (CARNA BIOSCIENCES, INC., priority 2016, dated 2020).

For test [1], the system named is FCR3 strain, a drug sensitive strain of Plasmodium falciparum. Kind of test: In vitro antimalarial assay (p-LDH, Malstat), FCR3 strain. In kind it is cell-based. Particulars: P. falciparum FCR3 (drug sensitive), 72 h culture, p-LDH readout, read-out: Antimalarial activity (IC50 value), Strain FCR3. In a few lines: (§1)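 IC50 derived from concentration-response of parasite lactate dehydrogenase signal (Malstat reagent, NBT/PES formazan at 655 nm) after freeze-thaw lysis. Infected erythrocytes (hematocrit 2%, parasitaemia 0.5 or 1%) exposed 72 h to 12.5–0.0001 μM final compound under 3% O2-4% CO2-93% N2, FCR3 and K1 alike.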

Test [2] concerns K1 strain, a drug resistant strain of Plasmodium falciparum. Kind of test: In vitro antimalarial assay (p-LDH, Malstat), K1 strain. In kind it is cell-based. Particulars: P. falciparum K1 (drug resistant), 72 h culture, p-LDH readout, read-out: Antimalarial activity (IC50 value), Strain K1. An outline of the steps: as §1

For `Cc1ccc(Nc2nc(Nc3ccn4ccnc4c3)cc(N3CCCCC3)n2)nc1C` [Example 88, N2-(5,6-dimethylpyridin-2-yl)-N4-(imidazo[1,2-a]pyridin-7-yl)-6-(piperidin-1-yl)pyrimidine-2,4-diamine], the IC50 in test [1] and in test [2] was < 0.1 µM each time.

For `CN1CCC(Oc2ccc(Nc3nc(Nc4ccn5ccnc5c4)cc(N4CCOCC4)n3)cn2)CC1` [Example 89, N4-(imidazo[1,2-a]pyridin-7-yl)-N2-(6-((1-methylpiperidin-4-yl)oxy)pyridin-3-yl)-6-morpholinopyrimidine-2,4-diamine], the results for the IC50 in test [1] and in test [2] were < 0.1 µM and 0.1 to 1 µM, respectively.

For the molecule `c1ccc(Oc2ccc(Nc3nc(Nc4ccn5ccnc5c4)cc(N4CCOCC4)n3)cn2)cc1` [Example 90, N4-(imidazo[1,2-a]pyridin-7-yl)-6-morpholino-N2-(6-phenoxypyridin-3-yl)pyrimidine-2,4-diamine], the IC50 in test [1] is < 0.1 µM; in test [2] it was 0.1 to 1 µM.

On to `c1ccc(COc2ccc(Nc3nc(Nc4ccn5ccnc5c4)cc(N4CCOCC4)n3)cn2)cc1` [Example 91, N2-(6-(benzyloxy)pyridin-3-yl)-N4-(imidazo[1,2-a]pyridin-7-yl)-6-morpholinopyrimidine-2,4-diamine], for which the results for the IC50 in test [1] and in test [2] were < 0.1 µM and 0.1 to 1 µM, respectively.

In the case of `CCc1ccnc(Nc2nc(Nc3ccn4ccnc4c3)cc(N3CCCCCC3)n2)c1` [Example 92, 6-(azepan-1-yl)-N2-(4-ethylpyridin-2-yl)-N4-(imidazo[1,2-a]pyridin-7-yl)pyrimidine-2,4-diamine], the 50% inhibitory concentration (IC50) in test [1] and in test [2] was < 0.1 µM in each case.

Regarding `CCc1cccc(Nc2nc(Nc3ccn4ccnc4c3)cc(N3CCCCC3)n2)n1` [Example 95, N2-(6-ethylpyridin-2-yl)-N4-(imidazo[1,2-a]pyridin-7-yl)-6-(piperidin-1-yl)pyrimidine-2,4-diamine], the half-inhibitory concentration (IC50) in test [1] and in test [2] was < 0.1 µM each time.

For `c1cc(Nc2nc(Nc3ccn4ccnc4c3)cc(N3CCCCC3)n2)nc(C2CC2)c1` [Example 96, N2-(6-cyclopropylpyridin-2-yl)-N4-(imidazo[1,2-a]pyridin-7-yl)-6-(piperidin-1-yl)pyrimidine-2,4-diamine], the 50% inhibitory concentration (IC50) in test [1] and in test [2] was 0.1 to 1 µM in each case.

With `CCc1ccnc(Nc2nc(Nc3ccn4ccnc4c3)cc(N3CCN[C@@H](C)C3)n2)c1` [Example 97, (S)-N2-(4-ethylpyridin-2-yl)-N4-(imidazo[1,2-a]pyridin-7-yl)-6-(3-methylpiperazin-1-yl)pyrimidine-2,4-diamine], the IC50 in test [1] and in test [2] was 0.1 to 1 µM throughout.

In the case of `CCc1ccnc(Nc2nc(Nc3ccn4ccnc4c3)cc(N3CCC(C)CC3)n2)c1` [Example 98, N2-(4-ethylpyridin-2-yl)-N4-(imidazo[1,2-a]pyridin-7-yl)-6-(4-methylpiperidin-1-yl)pyrimidine-2,4-diamine], the half-maximal inhibitory concentration (IC50) in test [1] and in test [2] was 0.1 to 1 µM throughout.

Consider `CCc1ccnc(Nc2nc(Nc3ccn4ccnc4c3)cc(N3CCC(C)(C)CC3)n2)c1` [Example 99, 6-(4,4-dimethylpiperidin-1-yl)-N2-(4-ethylpyridin-2-yl)-N4-(imidazo[1,2-a]pyridin-7-yl)pyrimidine-2,4-diamine], for which the IC50 in test [1] and in test [2] was 0.1 to 1 µM throughout.

In the case of `CCc1ccnc(Nc2nc(Nc3ccn4ccnc4c3)cc(N3CCN(C(=O)OC(C)(C)C)[C@H](C)C3)n2)c1` [Example 100, (R)-tert-butyl 4-(2-((4-ethylpyridin-2-yl)amino)-6-(imidazo[1,2-a]pyridin-7-ylamino)pyrimidin-4-yl)-2-methylpiperazine-1-carboxylate], the IC50 in test [1] and in test [2] was 0.1 to 1 µM in each case.

`CCc1ccnc(Nc2nc(Nc3ccn4ccnc4c3)cc(N3CCN(C)[C@@H](C)C3)n2)c1` [Example 101, (S)-6-(3,4-dimethylpiperazin-1-yl)-N2-(4-ethylpyridin-2-yl)-N4-(imidazo[1,2-a]pyridin-7-yl)pyrimidine-2,4-diamine]: the figures for the concentration for half-maximal inhibition (IC50) in test [1] and in test [2] were 0.1 to 1 µM and 1 to 10 µM, respectively.

In the case of `CCc1ccnc(Nc2nc(Nc3ccn4ccnc4c3)cc(N3CCN[C@H](C)C3)n2)c1` [Example 102, (R)-N2-(4-ethylpyridin-2-yl)-N4-(imidazo[1,2-a]pyridin-7-yl)-6-(3-methylpiperazin-1-yl)pyrimidine-2,4-diamine], the IC50 in test [1] and in test [2] was 0.1 to 1 µM in each case.

`CCc1ccnc(Nc2nc(Nc3ccn4ccnc4c3)cc(N3CCN(C(=O)OC(C)(C)C)[C@@H](C)C3)n2)c1` [Example 103, (S)-tert-butyl 4-(2-((4-ethylpyridin-2-yl)amino)-6-(imidazo[1,2-a]pyridin-7-ylamino)pyrimidin-4-yl)-2-methylpiperazine-1-carboxylate]: the IC50 in test [1] and in test [2] was 0.1 to 1 µM each time.

Turning to `CCc1ccnc(Nc2nc(Nc3ccn4ccnc4c3)cc(N3CCN(C)[C@H](C)C3)n2)c1` [Example 104, (R)-6-(3,4-dimethylpiperazin-1-yl)-N2-(4-ethylpyridin-2yl)-N4-(imidazo[1,2-a]pyridin-7-yl)pyrimidine-2,4-diamine], the values for the IC50 in test [1] and in test [2] were 0.1 to 1 µM and 1 to 10 µM, respectively.

For the molecule `CCc1cccc(Nc2nc(Nc3ccn4ccnc4c3)cc(N3CCOCC3)n2)n1` [Example 107, N2-(6-ethylpyridin-2-yl)-N4-(imidazo[1,2-a]pyridin-7-yl)-6-morpholinopyrimidine-2,4-diamine], the IC50 in test [1] and in test [2] was < 0.1 µM each time.

Consider `CCCc1cccc(Nc2nc(Nc3ccn4ccnc4c3)cc(N3CCOCC3)n2)n1` [Example 108, N4-(imidazo[1,2-a]pyridin-7-yl)-6-morpholino-N2-(6-propylpyridin-2-yl)pyrimidine-2,4-diamine], for which the results for the IC50 in test [1] and in test [2] were < 0.1 µM and 0.1 to 1 µM, respectively.

Turning to `CCCCc1cccc(Nc2nc(Nc3ccn4ccnc4c3)cc(N3CCOCC3)n2)n1` [Example 109, N2-(6-butylpyridin-2-yl)-N4-(imidazo[1,2-a]pyridin-7-yl)-6-morpholinopyrimidine-2,4-diamine], the IC50 in test [1] and in test [2] was < 0.1 µM each time.

Regarding `c1cc(Nc2nc(Nc3ccn4ccnc4c3)cc(N3CCOCC3)n2)nc(C2CC2)c1` [Example 110, N2-(6-cyclopropylpyridin-2-yl)-N4-(imidazo[1,2-a]pyridin-7-yl)-6-morpholinopyrimidine-2,4-diamine], the results for the IC50 in test [1] and in test [2] were < 0.1 µM and 0.1 to 1 µM, respectively.

As to `CCc1ccnc(Nc2nc(Nc3ccn4ccnc4c3)cc(N3CCC(O)CC3)n2)c1` [Example 111, 1-(2-((4-ethylpyridin-2-yl)amino)-6-(imidazo[1,2-a]pyridin-7-ylamino)pyrimidin-4-yl)piperidin-4-ol], the IC50 in test [1] and in test [2] was < 0.1 µM throughout.

Regarding `CCc1ccnc(Nc2nc(Nc3ccn4ccnc4c3)cc(N3CCC(N4CCOCC4)CC3)n2)c1` [Example 112, N2-(4-ethylpyridin-2-yl)-N4-(imidazo[1,2-a]pyridin-7-yl)-6-(4-morpholinopiperidin-1-yl)pyrimidine-2,4-diamine], the half-inhibitory concentration (IC50) in test [1] and in test [2] was < 0.1 µM in each case.

In the case of `CCc1ccnc(Nc2nc(Nc3ccn4ccnc4c3)cc(N3CCC(N4CCCCC4)CC3)n2)c1` [Example 113, 6-([1,4′-bipiperidin]-1′-yl)-N2-(4-ethylpyridin-2-yl)-N4-(imidazo[1,2-a]pyridin-7-yl)pyrimidine-2,4-diamine], the half-inhibitory concentration (IC50) in test [1] and in test [2] was < 0.1 µM throughout.

As to `CCc1ccnc(Nc2nc(Nc3ccn4ccnc4c3)cc(N3CC(O)C3)n2)c1` [Example 115, 1-(2-((4-ethylpyridin-2-yl)amino)-6-(imidazo[1,2-a]pyridin-7-ylamino)pyrimidin-4-yl)azetidin-3-ol], the IC50 in test [1] and in test [2] was < 0.1 µM in each case.

Take `CCc1ccnc(Nc2nc(Nc3ccn4ccnc4c3)cc(N3CC[C@@H](O)C3)n2)c1` [Example 116, (R)-1-(2-((4-ethylpyridin-2-yl)amino)-6-(imidazo[1,2-a]pyridin-7-ylamino)pyrimidin-4-yl)pyrrolidin-3-ol]: the IC50 in test [1] and in test [2] was < 0.1 µM throughout.

As for `CCc1ccnc(Nc2nc(Nc3ccn4ccnc4c3)cc(N3CC[C@H](O)C3)n2)c1` [Example 117, (S)-1-(2-((4-ethylpyridin-2-yl)amino)-6-(imidazo[1,2-a]pyridin-7-ylamino)pyrimidin-4-yl)pyrrolidin-3-ol], the IC50 in test [1] and in test [2] was < 0.1 µM throughout.

Turning to `CCc1ccnc(Nc2nc(Nc3ccn4ccnc4c3)cc(N3CCC3)n2)c1` [Example 118, 6-(azetidin-1-yl)-N2-(4-ethylpyridin-2-yl)-N4-(imidazo[1,2-a]pyridin-7-yl)pyrimidine-2,4-diamine], the IC50 in test [1] and in test [2] was < 0.1 µM each time.

With `CCc1ccnc(Nc2nc(Nc3ccn4ccnc4c3)cc(N3CCC(CO)CC3)n2)c1` [Example 119, (1-(2-((4-ethylpyridin-2-yl)amino)-6-(imidazo[1,2-a]pyridin-7-ylamino)pyrimidin-4-yl)piperidin-4-yl)methanol], the IC50 in test [1] and in test [2] was < 0.1 µM throughout.

As for `CCc1ccnc(Nc2nc(Nc3ccn4ccnc4c3)cc(N3CCOCCOCCOCC3)n2)c1` [Example 120, N2-(4-ethylpyridin-2-yl)-N4-(imidazo[1,2-a]pyridin-7-yl)-6-(1,4,7-trioxa-10-azacyclododecan-10-yl)pyrimidine-2,4-diamine], the IC50 in test [1] and in test [2] was 1 to 10 µM throughout.

The IC50 is the point on the concentration scale where inhibition reaches its midpoint.
